{
  "source": "patent US12622901B2",
  "about": "“Compounds for tau protein degradation” (Dana-Farber Cancer Institute, Inc., priority 2017, dated 2026)",
  "key": {"A152T neurons [1]": {"system": "A152T neurons", "assay": "Neuronal viability / rescue of stress vulnerability to β-amyloid (1-42) peptide", "details": "A152T neurons differentiated 8 weeks; compound alone; FIG. 7"}, "tau protein [2]": {"biological_target": "T1, tau protein (Homo sapiens, UniProt P10636, A469T)", "T1 construct": "cultured human differentiated frontotemporal lobar dementia (FTD) neurons; endogenous in cells; host or cells: human differentiated FTD neurons, tau-A152T (line 19-5-RC6)", "T1 sequence (P10636 1-441 isoform P10636-8 A152T)": "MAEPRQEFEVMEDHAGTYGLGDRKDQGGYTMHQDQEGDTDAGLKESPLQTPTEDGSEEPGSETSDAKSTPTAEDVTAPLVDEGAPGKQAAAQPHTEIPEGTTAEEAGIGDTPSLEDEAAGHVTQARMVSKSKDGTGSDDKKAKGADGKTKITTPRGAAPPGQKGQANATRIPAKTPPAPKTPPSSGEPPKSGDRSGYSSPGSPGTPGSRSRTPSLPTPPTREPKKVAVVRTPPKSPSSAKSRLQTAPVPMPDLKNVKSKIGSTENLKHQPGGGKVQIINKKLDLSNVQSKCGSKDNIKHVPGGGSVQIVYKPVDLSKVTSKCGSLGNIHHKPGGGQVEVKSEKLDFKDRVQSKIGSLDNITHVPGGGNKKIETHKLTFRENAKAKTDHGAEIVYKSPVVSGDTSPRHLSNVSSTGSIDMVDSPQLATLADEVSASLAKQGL", "assay": "Tau degradation assay (western blot) in human tau-A152T neurons", "type": "cell-based", "procedure": "Example compounds 1-12 were evaluated for their ability to degrade tau protein in cultured human differentiated frontotemporal lobar dementia (FTD) neurons. […] For each condition, 1 well of differentiated neuronal cells (6 well-plate) was washed and collected in PBS, pelleted and lysed in RIPA buffer (Boston Bio-Products) with 2% SDS (Sigma), protease inhibitors (Roche Complete Mini tablets), and phosphatase inhibitors (Sigma), followed by sonication in a water sonicator (Bransonic Ultrasonic Baths, Thomas Scientific) for 5 min, and centrifugation at 20,000 g for 15 min. Supernatants were transferred to new tubes, total protein concentration was quantified with the Pierce BCA Protein Assay Kit (Thermo), and SDS-PAGE gels were loaded with 10 μg total protein per well (pre-boiled samples). Western blots were performed with the Novex NuPAGE SDS-PAGE Gel System (Invitrogen). All samples were resolved in 7% Tris-Acetate gels with Tris-Acetate running buffer (Invitrogen). Blots were probed with antibodies against total tau (TAU5) and phosphosrylated tau (Ser396), along with β-actin as a loading control; followed by corresponding HRP-linked secondary antibodies (Cell Signaling Technology), and SuperSignal West Pico Chemiluminescent Substrate (Thermo) detection. Membranes were exposed to autoradiographic film (LabScientific) and films were scanned using an Epson Perfection V800 Photo Scanner. Protein band intensities (pixel mean intensity) were quantified using Adobe Photoshop CS5 Histogram function. Whereas the vehicle alone (DMSO) had no effect on tau, varying degrading activity was observed amongst the compounds, however with overall similar relative levels of degrading activity between tau-A152T neurons and tau-P301L neurons. Compounds were added at the doses indicated of either 0.1, 1, 5, or 10 μM.\n(§1) Four-week differentiated neurons, both non-mutant (8330-8) and tau-A152T (19-5-RC6) were employed. The neurons were treated with T807 for 24 hours (at 10 μg/mL=59.4 μM). One well of differentiated neuronal cells (6 well-plate, treated or untreated) was washed and collected in PBS, pelleted and directly lysed in 200 μL of Sample Buffer (New England Biolabs) supplemented with 3X DTT, boiled for 15 min and 10 μL of each lysate was run by SDS-PAGE in a 4-12% Bis-Tris Gel, with MOPS running buffer. Blots were probed with antibodies to total tau (DA9) and phosphorylated tau (Ser396, PHF1, AT8) along with GAPDH as a loading control.\nExample compounds 2-5 were reevaluated for their ability to degrade tau protein in human FTD neurons as well as evaluate their effect on E3 ubiquitin ligases CRBN, VHL, and CHIP (FIG. 4A-E). For each control and treatment, 1 well of differentiated neuronal cells (6 well-plate) was washed and collected in PBS, pelleted and lysed in RIPA buffer (Boston Bio-Products) with 2% SDS (Sigma), protease inhibitors (Roche Complete Mini tablets), and phosphatase inhibitors (Sigma), followed by sonication in a water sonicator (Bransonic Ultrasonic Baths, Thomas Scientific) for 5 min, and centrifugation at 20,000 g for 15 min. Supernatants were transferred to new tubes, total protein concentration was quantified with the Pierce BCA Protein Assay Kit (Thermo), and SDS-PAGE gels were loaded with 10 μg total protein per well (pre-boiled samples). […] Protein band intensities (pixel mean intensity) were quantified using Adobe Photoshop CS5 Histogram function. […]"}, "tau protein [3]": {"biological_target": "T2, tau protein (Homo sapiens, UniProt P10636, P618L)", "T2 construct": "cultured human differentiated frontotemporal lobar dementia (FTD) neurons; endogenous in cells; host or cells: human differentiated FTD neurons, tau-P301L", "T2 sequence (P10636 1-441 isoform P10636-8 P301L)": "as the sequence (P10636 1-441 isoform P10636-8 A152T) above, with T152A, P301L counted along it", "assay": "Tau degradation assay (western blot) in human tau-P301L neurons", "type": "cell-based", "procedure": "Example compounds 1-12 were evaluated for their ability to degrade tau protein in cultured human differentiated frontotemporal lobar dementia (FTD) neurons. […] For each condition, 1 well of differentiated neuronal cells (6 well-plate) was washed and collected in PBS, pelleted and lysed in RIPA buffer (Boston Bio-Products) with 2% SDS (Sigma), protease inhibitors (Roche Complete Mini tablets), and phosphatase inhibitors (Sigma), followed by sonication in a water sonicator (Bransonic Ultrasonic Baths, Thomas Scientific) for 5 min, and centrifugation at 20,000 g for 15 min. Supernatants were transferred to new tubes, total protein concentration was quantified with the Pierce BCA Protein Assay Kit (Thermo), and SDS-PAGE gels were loaded with 10 μg total protein per well (pre-boiled samples). Western blots were performed with the Novex NuPAGE SDS-PAGE Gel System (Invitrogen). […] Protein band intensities (pixel mean intensity) were quantified using Adobe Photoshop CS5 Histogram function. […]\nExample compounds 2-5 were reevaluated for their ability to degrade tau protein in human FTD neurons as well as evaluate their effect on E3 ubiquitin ligases CRBN, VHL, and CHIP (FIG. 4A-E). […] Supernatants were transferred to new tubes, total protein concentration was quantified with the Pierce BCA Protein Assay Kit (Thermo), and SDS-PAGE gels were loaded with 10 μg total protein per well (pre-boiled samples). […]"}, "tau protein [4]": {"biological_target": "T3, tau protein (Homo sapiens, UniProt P10636)", "T3 construct": "Four-week differentiated neurons, both non-mutant (8330-8) and tau-A152T (19-5-RC6) were employed; endogenous in cells; host or cells: human differentiated non-mutant control neurons (8330-8, 8330-8-RC1, CTR2-L17-RC2)", "T3 sequence (P10636 1-441 isoform P10636-8)": "as the sequence (P10636 1-441 isoform P10636-8 A152T) above, with T152A counted along it", "assay": "Tau degradation assay (western blot) in non-mutant control human neurons", "type": "cell-based", "procedure": "as §1\nExample compounds 2-5 were again evaluated in tau degradation assays in non-mutant control, A152T and P301L neurons (6-week differentiated). Non-mutant neurons were employed as a negative control since derivatives of T807 should not recognize non-disease states of tau based upon how the series was identified, using selection for binding to pathological forms of tau in post-mortem brain lysates and tissue slices. […] Supernatants were transferred to new tubes, total protein concentration was quantified with the Pierce BCA Protein Assay Kit (Thermo), and SDS-PAGE gels were loaded with 10 μg total protein per well (pre-boiled samples). […] Protein band intensities (pixel mean intensity) were quantified using Adobe Photoshop CS5 Histogram function. […]"}, "A152T neurons [5]": {"system": "A152T neurons"}},
  "note": "“Also recorded” adds a separate entry of the source. Like-named read-outs stand apart in the source and are kept apart here.",
  "data": [
    {"compound": "O=C(CCc1ccc2c(c1)[nH]c1ccncc12)NCCOCCNc1cccc2c1C(=O)N(C1CCC(=O)NC1=O)C2=O", "note": "(stereo not shown) [Compound 2, N-(2-(2-((2-(2,6-dioxopiperidin-3-yl)-1,3-dioxoisoindolin-4-yl)amino)ethoxy)ethyl)-3-(5H-pyrido[4,3-b]indol-7-yl)propanamide]", "values": [
      {"measurement": "effect on neuronal viability", "setting": "A152T neurons [1]", "result": "no effect on neuronal viability"},
      {"measurement": "dose-dependency of effect on tau", "setting": "tau protein [2]; 6-week differentiated A152T neurons, treatment for 24 hours, FIG. 6", "result": "dose dependent effect on tau"}
    ]},
    {"compound": "Fc1ccc(-c2ccc3c(c2)[nH]c2ccncc23)cn1", "note": "[Compound T807]", "values": [
      {"measurement": "effect on total tau and phospho-tau (S396) levels", "setting": "tau protein [3]; P301L neurons, 6-week differentiated, 1 μM, FIG. 5", "result": "no effect"},
      {"measurement": "effect on total tau and phospho-tau (S396) levels", "setting": "tau protein [2]; A152T neurons, 6-week differentiated, 1 μM, FIG. 5", "result": "no effect"},
      {"measurement": "effect on total tau and phosphorylated tau levels", "setting": "tau protein [2]; tau-A152T (19-5-RC6) neurons, four-week differentiated, 24 h at 10 μg/mL=59.4 μM, FIG. 3", "result": "No significant tau lowering activity; also recorded: no effect on tau levels and did not degrade tau"},
      {"measurement": "effect on total tau and phosphorylated tau levels", "setting": "tau protein [4]; non-mutant (8330-8) neurons, four-week differentiated, 24 h at 10 μg/mL=59.4 μM, FIG. 3", "result": "No significant tau lowering activity; also recorded: no effect on tau levels and did not degrade tau"},
      {"measurement": "effect on total tau and phospho-tau (S396) levels", "setting": "tau protein [4]; non-mutant control neurons, 6-week differentiated, 1 μM, FIG. 5", "result": "no effect"}
    ]},
    {"compound": "Nc1cccc2c1CN(C1CCC(=O)NC1=O)C2=O", "note": "(stereo not shown) [Lenalidomide]", "values": [
      {"measurement": "effect on total tau and hyperphosphorylated tau levels", "setting": "tau protein [3]; tau-P301L neurons, 8-week differentiated, 24 h treatment, 0.1, 1, 5 or 10 μM (lenalidomide 1 or 10 μM), TAU5, pSer396", "result": "no effect on tau levels"},
      {"measurement": "effect on total tau and hyperphosphorylated tau levels", "setting": "tau protein [2]; tau-A152T neurons, 5-week differentiated, 24 h treatment, 0.1, 1, 5 or 10 μM (lenalidomide 1 or 10 μM), TAU5, pSer396", "result": "no effect on tau levels"}
    ]},
    {"compound": "N-(17-(2-((2-(2,6-dioxopiperidin-3-yl)-1,3-dioxoisoindolin-4-yl)amino)-3,6,9,12,15-pentaoxaheptadecyl)-3-(5H-pyrido[4,3-b]indol-7-yl)propanamide [Compound 5]", "values": [
      {"measurement": "effect on neuronal viability", "setting": "A152T neurons [5]", "result": "no effect on neuronal viability"}
    ]}
  ]
}
